These results are taken from publication PMC6154661, “In Vitro Glucuronidation and Sulfation of ε-Viniferin, a Resveratrol Dimer, in Humans and Rats” (Molecules : A Journal of Synthetic Chemistry and Natural …, 2017).

Several values for one entry are separate records, joined by “and”; a condition that tells them apart may be missing. Equal values may be shown once. Read-outs that look alike come from different tables or passages of the source.

For data set [1] the following is noted: rat, in vivo; cited from earlier work.
The nature of data set [2]: Sulfation of ε-viniferin by rat liver S9 fractions (PAPS). It is filed as in vitro ADME. To be noted: for Vmax: formation of the sulfate from ε-viniferin, rat liver S9, mean ± SEM, n=3; for relative abundance among the sulfoconjugates (UPLC-DAD profile): rat liver S9 2 mg/mL, ε-viniferin 50 µM, PAPS, 40 min, 37 °C. As for the experimental part:
(§1) After incubation of ε-viniferin (50 µM) for 40 min at 37 °C with either human (Figure 2a, lower panel) or rat (Figure 2b, lower panel) liver S9 fractions (2 mg/mL) in the presence of different phase II cofactor(s), i.e., 3′-phosphoadenosine-5′-phosphosulfate (PAPS) and UDPGA, eight metabolites were found using UPLC-DAD-MS. These metabolites were further identified by comparison with the UPLC retention times and mass spectra of the authentic chemical standards that were obtained by chemical hemi-synthesis (Figure 1a). These eight compounds were the four glucuronoconjugates (MG1, MG2, MG3, and MG4) and the four sulfoconjugates (MS1, MS2, MS3, and MS4). These metabolites were absent in the control condition, i.e., in the presence of liver S9 fractions and in the absence of phase II cofactors (data not shown).
(§2) Samples from either chemical hemi-synthesis or metabolic reactions were carried using a 1290 Infinity UPLC (Agilent Technologies, Courtaboeuf, France). The UPLC was coupled to an Esquire 3000 Plus ion trap mass spectrometer using an ESI source (Bruker-Daltonics, Billerica, MA, USA). 2 µL were injected into an Agilent SB-C18 column (1.8 µm, 2.1 × 100 mm). Samples were eluted with solvent A (H2O 0.1% FA) and solvent B (acetonitrile 0.1% FA) by the following gradient program: 0–1.7 min, 10% B; 1.7–3.4 min, 10–20% B; 3.4–5.1 min, 20–30% B; 5.1–7.8 min, 30% B; 7.8–8.5 min, 30–35% B; 8.5–11.9 min, 35–60% B; 11.9–15.3 min, 60–100% B; 15.3–17 min, 100% B; 17–17.3 min, 100–10% B. The flow rate was set to 0.4 mL/min and the UV detector was set at the wavelength 320 nm. Total ion chromatograms were obtained using negative mode with a range of m/z 130–1400. The parameters were: capillary voltage, +4 kV; nebulizer pressure, 40 psi; dry gas, 10 L/min; dry temperature, 365 °C. Data analysis was performed with Bruker Data Analysis 3.2 (Bruker-Daltonics, Billerica, MA, USA). Metabolite concentrations were expressed as an equivalent of the ε-viniferin standard curve.
(§3) The incubation conditions were optimized by preliminary experiments to ensure the formation rates of metabolites were linear over the incubation time and at the concentration of protein added. Sulfation was investigated by incubating human or rat liver S9 fractions (2 mg/mL) with ε-viniferin at different concentrations (5 to 300 µM) in Tris-HCl buffer (50 mM, pH 7.4), in the presence of PAPS (1 mM), DTT (10 mM), MgCl2 (5 mM) in a final volume of 100 µL. After 40 min at 37 °C, the reaction was stopped with 100 µL of methanol to precipitate the protein. Glucuronidation was investigated by incubating human or rat liver S9 fractions (2 mg/mL) with ε-viniferin at different concentrations (5 to 300 µM) in Tris-HCl buffer (50 mM, pH 7.4), in the presence of UDPGA (1 mM), alamethicin (25 µg/mL), and MgCl2 (5 mM) in a final volume of 100 µL. After 40 min at 37 °C, the reaction was stopped with 100 µL of methanol to precipitate the protein. Samples from sulfation and glucuronidation were then centrifuged for 30 min (14,000× g, 4 °C), and the resultant supernatants were analyzed using UPLC-DAD-MS as described above. The kinetic model that was used to analyze the results was substrate inhibition. Kinetic parameters, i.e., Vmax and Km were obtained using GraphPad Prism software (La Jolla, CA, USA). Results are expressed as mean ± sem of three independent experiments.
(§4) V = (Vmax × [S])/(Km + [S] + [S]^2/Ki),
(§5) Vmax: maximal velocity; Km: substrate affinity constant; [S]: substrate concentration; Ki: substrate inhibition constant.

Data set [3] in a line: Formation of glucurono- and sulfoconjugates of ε-viniferin (50 µM, 40 min) with rat liver S9 fractions. It counts as in vitro ADME. To be noted: rat liver S9, ε-viniferin 50 µM. As for the experimental part: as §1, §2, §3
Data set [4] is described as follows: Formation of glucurono- and sulfoconjugates of ε-viniferin (50 µM, 40 min) with human liver S9 fractions. It counts as in vitro ADME. Particulars: human liver S9, ε-viniferin 50 µM. As for the experimental part: as §1, §2, §3
Data set [5] is described as follows: Sulfation of ε-viniferin by human liver S9 fractions (PAPS). To be noted: for Vmax: formation of the sulfate from ε-viniferin, human liver S9, mean ± SEM, n=3; for relative abundance among the sulfoconjugates (UPLC-DAD profile): human liver S9 2 mg/mL, ε-viniferin 50 µM, PAPS, 40 min, 37 °C. It is filed as in vitro ADME. The method, then: as §1, §2, §3
(§6) V = (Vmax × [S])/(Km + [S] + [S]^2/Ki), […]

Data set [6] can be described thus: Glucuronidation of ε-viniferin by human liver S9 fractions (UDPGA). It is filed as in vitro ADME. To be noted: for Vmax: formation of the glucuronide from ε-viniferin, human liver S9, mean ± SEM, n=3; for relative abundance among the glucuronides (UPLC-DAD profile): human liver S9 2 mg/mL, ε-viniferin 50 µM, UDPGA, 40 min, 37 °C. As for the experimental part:
as §1, §2, §3, §4, §5

Data set [7] can be described thus: Glucuronidation of ε-viniferin by rat liver S9 fractions (UDPGA). It counts as in vitro ADME. Particulars: for Vmax: formation of the glucuronide from ε-viniferin, rat liver S9, mean ± SEM, n=3. As for the experimental part:
as §1, §2, §3, §6

Details of data set [8]: method as in PMID 27902942. To be noted: mice, oral administration; cited from earlier work.

`Oc1ccc([C@H]2Oc3ccc(/C=C/c4cc(O)cc(O)c4)cc3[C@@H]2c2cc(O)cc(O)c2)cc1` [δ-viniferin]: in data set [1], the oral bioavailability is reported as 2.3%.
Turning to `O=S(=O)(O)Oc1cc(/C=C/c2ccc(O)cc2)c2c(c1)OC(c1ccc(O)cc1)C2c1cc(O)cc(O)c1` (stereo not shown) [MS1], the results for the Vmax in data set [2] and in data set [5] were 25.16 ± 2.29 pmol/min/mg protein and 361.60 ± 13.09 pmol/min/mg protein, respectively. The “relative abundance among the sulfoconjugates (UPLC-DAD profile)” value is “almost equal amounts” in data set [2] and “major metabolite” in data set [5]. Besides, the “percentage of each metabolite relative to the total amount of ε-viniferin metabolites formed by sulfation” value in data set [3] is recorded as “MS1: 38.0 ± 1.4%”; in data set [4] it was “MS1: 75.2 ± 3.8%”.
Consider `O=S(=O)(O)Oc1ccc(C2Oc3cc(O)cc(/C=C/c4ccc(O)cc4)c3C2c2cc(O)cc(O)c2)cc1` (stereo not shown) [MS3], for which the Vmax in data set [2] is on record as 13.47 ± 1.10 pmol/min/mg protein. For the same molecule, the “relative abundance among the sulfoconjugates (UPLC-DAD profile)” value in data set [2] is reported as “almost equal amounts”; in data set [5] it was “trace amount”. The figures for the “percentage of each metabolite relative to the total amount of ε-viniferin metabolites formed by sulfation” value in data set [3] and in data set [4] were “MS3: 22.0 ± 1.9%” and “MS3: 0%”, respectively.
Consider `O=C(O)C1OC(Oc2cc(O)cc(C3c4c(/C=C/c5ccc(O)cc5)cc(O)cc4OC3c3ccc(O)cc3)c2)C(O)C(O)C1O` (stereo not shown) [MG4], for which the values for the Vmax in data set [6] and in data set [7] were 4.91 ± 0.78 pmol/min/mg protein and 43.99 ± 5.49 pmol/min/mg protein, respectively. For the same molecule, in data set [6], the “relative abundance among the glucuronides (UPLC-DAD profile)” value was “major metabolites”. Moreover, the “percentage of each metabolite relative to the total amount of ε-viniferin metabolites formed by glucuronidation” value in data set [3] is “MG4: 7.1 ± 0.1%”; in data set [4] it was “MG4: 31.5 ± 0.9%”.
As to `O=C(O)C1OC(Oc2cc(/C=C/c3ccc(O)cc3)c3c(c2)OC(c2ccc(O)cc2)C3c2cc(O)cc(O)c2)C(O)C(O)C1O` (stereo not shown) [MG1], the Vmax in data set [6] is reported as 11.27 ± 1.30 pmol/min/mg protein; in data set [7], 548.90 ± 86.17 pmol/min/mg protein. The “relative abundance among the glucuronides (UPLC-DAD profile)” value in data set [6] is on record as “major metabolites”; in data set [7] (rat liver S9 2 mg/mL, ε-viniferin 50 µM, UDPGA, 40 min, 37 °C), “major metabolite”. Further, the “percentage of each metabolite relative to the total amount of ε-viniferin metabolites formed by glucuronidation” value is “MG1: 91.1 ± 2.4%” in data set [3] and “MG1: 54.6 ± 2.4%” in data set [4].
Take `O=C(O)C1OC(Oc2ccc(C3Oc4cc(O)cc(/C=C/c5ccc(O)cc5)c4C3c3cc(O)cc(O)c3)cc2)C(O)C(O)C1O` (stereo not shown) [MG3]: the Vmax in data set [6] was 0.78 ± 0.06 pmol/min/mg protein; in data set [7], 3.06 ± 0.14 pmol/min/mg protein. In addition, the “percentage of each metabolite relative to the total amount of ε-viniferin metabolites formed by glucuronidation” value is reported as “MG3: 0.7 ± 0.0%” in data set [3] and “MG3: 8.9 ± 0.5%” in data set [4].
Take `Oc1ccc(/C=C/c2cc(O)cc3c2[C@@H](c2cc(O)cc(O)c2)[C@H](c2ccc(O)cc2)O3)cc1` [ε-viniferin, ε-Viniferin]: the oral bioavailability in data set [8] is recorded as 0.77%. In addition, in data set [3], the “Sulfatation (%)” value is 4.3% and 4.3 ± 0.3%; the “ε-viniferin conversion (%)” value was 78.1 ± 0.9%. Besides, in data set [4], the “Glucuronidation (%)” value is 29.1% and 29.1 ± 1.2%; the “Sulfatation (%)” value is 43.6% and 43.6 ± 1.8%.
On to `O=C(O)C1OC(Oc2ccc(/C=C/c3cc(O)cc4c3C(c3cc(O)cc(O)c3)C(c3ccc(O)cc3)O4)cc2)C(O)C(O)C1O` (stereo not shown) [MG2], for which the Vmax in data set [6] is given as 2.54 ± 0.16 pmol/min/mg protein; in data set [7], 12.49 ± 1.13 pmol/min/mg protein. Further, the “percentage of each metabolite relative to the total amount of ε-viniferin metabolites formed by glucuronidation” value in data set [3] is listed as “MG2: 1.1 ± 0.2%”; in data set [4] it was “MG2: 5.0 ± 1.2%”.
Turning to `O=S(=O)(O)Oc1ccc(/C=C/c2cc(O)cc3c2C(c2cc(O)cc(O)c2)C(c2ccc(O)cc2)O3)cc1` (stereo not shown) [MS2], the figures for the Vmax in data set [2] and in data set [5] were 8.46 ± 0.89 pmol/min/mg protein and 30.46 ± 0.96 pmol/min/mg protein, respectively. The “relative abundance among the sulfoconjugates (UPLC-DAD profile)” value in data set [2] is recorded as “almost equal amounts”. Moreover, the “percentage of each metabolite relative to the total amount of ε-viniferin metabolites formed by sulfation” value is listed as “MS2: 23.5 ± 3.1%” in data set [3] and “MS2: 24.8 ± 1.2%” in data set [4].
In the case of `O=S(=O)(O)Oc1cc(O)cc(C2c3c(/C=C/c4ccc(O)cc4)cc(O)cc3OC2c2ccc(O)cc2)c1` (stereo not shown) [MS4], the Vmax in data set [2] came out at 36.79 ± 3.94 pmol/min/mg protein. Further, the “relative abundance among the sulfoconjugates (UPLC-DAD profile)” value in data set [2] is on record as “almost equal amounts”; in data set [5], “trace amount”. Moreover, the “percentage of each metabolite relative to the total amount of ε-viniferin metabolites formed by sulfation” value is “MS4: 16.4 ± 1.3%” in data set [3] and “MS4: 0%” in data set [4].
